Measured values reported in ChEMBL document CHEMBL6078641, “Modulation of aryl hydrocarbon receptor activity by halogenated indoles” (Bioorg Med Chem, 2024).

Key:
[1] = Induction of CYP1A1 mRNA expression in human LS180 cells incubated for 4 hrs by chromatin immunoprecipitation assay; type: functional
[2] = target: T1, Aryl hydrocarbon receptor (Mus musculus, UniProt P30561); assay: Displacement of [3H]-TCDD from AhR in mouse Hepa1c1c7 cell cytosolic lysate at 50 uM by competitive binding assay relative to control; type: subcellular, Cytosol; conditions: Hepa-1c1c7, mouse, read-out: Activity
T1 sequence (P30561 whole entry): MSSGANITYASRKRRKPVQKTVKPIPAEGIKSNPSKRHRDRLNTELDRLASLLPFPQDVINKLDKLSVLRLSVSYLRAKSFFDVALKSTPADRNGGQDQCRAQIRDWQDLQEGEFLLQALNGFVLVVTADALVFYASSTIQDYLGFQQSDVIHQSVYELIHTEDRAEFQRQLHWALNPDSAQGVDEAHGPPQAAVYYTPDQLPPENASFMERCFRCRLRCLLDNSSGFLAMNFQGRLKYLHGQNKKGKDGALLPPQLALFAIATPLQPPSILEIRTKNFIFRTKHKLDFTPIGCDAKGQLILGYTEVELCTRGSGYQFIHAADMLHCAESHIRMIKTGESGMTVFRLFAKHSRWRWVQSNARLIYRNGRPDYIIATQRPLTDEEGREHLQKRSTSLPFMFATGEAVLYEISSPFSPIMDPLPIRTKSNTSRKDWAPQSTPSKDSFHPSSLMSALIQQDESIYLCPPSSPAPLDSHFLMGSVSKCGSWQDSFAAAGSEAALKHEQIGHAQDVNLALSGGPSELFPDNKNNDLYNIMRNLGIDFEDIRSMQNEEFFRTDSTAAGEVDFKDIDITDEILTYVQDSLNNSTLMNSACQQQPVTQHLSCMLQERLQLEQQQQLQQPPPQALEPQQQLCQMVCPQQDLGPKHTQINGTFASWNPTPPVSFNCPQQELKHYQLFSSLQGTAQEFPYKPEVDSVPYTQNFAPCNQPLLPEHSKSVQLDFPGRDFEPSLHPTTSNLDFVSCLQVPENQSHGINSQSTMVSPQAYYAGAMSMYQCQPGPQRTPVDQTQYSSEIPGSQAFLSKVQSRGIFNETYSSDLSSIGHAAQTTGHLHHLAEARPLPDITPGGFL

[3] = target: T1, Aryl hydrocarbon receptor; assay: Displacement of [3H]-TCDD from AhR in mouse Hepa1c1c7 cell cytosolic lysate by competitive binding assay; type: subcellular, Cytosol; conditions: for Activity: mouse, cytosol, dose 0.1-100 µM
[4] = system: LS174T; assay: Cytotoxicity against human LS174T cells upto 200 uM incubated for 24 hrs by MTT assay; type: toxicity, cell-based
[5] = target: T2, Aryl hydrocarbon receptor (Homo sapiens, UniProt P35869); assay: Agonist activity at Luc-fused AhR (unknown origin) transcriptional activity expressed in human LS174T cells incubated for 24 hrs by luciferase reporter gene assay; type: cell-based
T2 sequence (P35869 whole entry): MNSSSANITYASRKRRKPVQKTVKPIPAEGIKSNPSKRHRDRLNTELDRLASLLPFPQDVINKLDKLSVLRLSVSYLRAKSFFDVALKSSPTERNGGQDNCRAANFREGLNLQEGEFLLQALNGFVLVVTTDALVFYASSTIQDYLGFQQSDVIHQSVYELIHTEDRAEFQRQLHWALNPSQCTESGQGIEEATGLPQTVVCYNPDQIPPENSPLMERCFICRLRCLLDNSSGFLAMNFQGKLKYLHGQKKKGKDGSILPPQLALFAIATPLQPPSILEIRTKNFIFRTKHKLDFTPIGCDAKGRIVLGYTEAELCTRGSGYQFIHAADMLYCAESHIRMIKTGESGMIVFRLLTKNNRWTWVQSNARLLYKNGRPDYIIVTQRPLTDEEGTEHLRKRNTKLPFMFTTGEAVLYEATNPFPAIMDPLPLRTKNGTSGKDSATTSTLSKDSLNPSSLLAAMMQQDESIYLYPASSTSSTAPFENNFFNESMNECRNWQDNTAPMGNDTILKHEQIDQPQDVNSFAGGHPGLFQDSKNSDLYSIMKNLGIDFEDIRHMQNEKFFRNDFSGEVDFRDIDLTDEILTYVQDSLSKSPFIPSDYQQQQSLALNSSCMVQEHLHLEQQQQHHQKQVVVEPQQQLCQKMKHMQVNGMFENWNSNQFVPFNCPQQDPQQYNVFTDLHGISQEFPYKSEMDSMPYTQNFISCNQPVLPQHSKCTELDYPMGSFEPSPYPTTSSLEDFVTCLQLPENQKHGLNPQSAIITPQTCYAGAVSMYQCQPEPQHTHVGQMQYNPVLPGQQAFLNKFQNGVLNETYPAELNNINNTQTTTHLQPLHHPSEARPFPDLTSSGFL

[6] = target: T2, Aryl hydrocarbon receptor; assay: Agonist activity at Luc-fused AhR (unknown origin) transcriptional activity expressed in human LS174T cells incubated for 4 hrs by luciferase reporter gene assay; type: cell-based
[7] = target: T2, Aryl hydrocarbon receptor; assay: Agonist activity at Luc-fused AhR (unknown origin) transcriptional activity expressed in human LS174T cells at 100 uM incubated for 4 hrs by luciferase reporter gene assay relative to control; type: cell-based; conditions: read-out: Activity
[8] = Induction of CYP1A1 mRNA expression in human LS180 cells assessed as fold increase at 100 uM incubated for 8 hrs by qRT-PCR analysis relative to control; type: functional
[9] = Induction of CYP1A1 mRNA expression in human LS180 cells assessed as fold increase at 100 uM incubated for 24 hrs by qRT-PCR analysis relative to control; type: functional
[10] = system: LS174T; assay: Cytotoxicity against human LS174T cells assessed as decrease in cell viability at 200 uM incubated for 24 hrs by MTT assay relative to control; type: toxicity, cell-based
[11] = Induction of CYP1A1 mRNA expression in human LS180 cells at 25 uM incubated for 4 hrs by chromatin immunoprecipitation assay relative to control; type: functional

SMILES	EC50 [6] [µM]	activity at 100 µM [7] [%]	EC80 [1] [µM]	Activity [4]	also measured
O=C1Cc2ccc(Cl)cc2N1	–	–	0.3	Non-toxic	inhibition at 50 µM [2]: 50%; IC50 [3]: 7.4 µM; Ki [3]: 3.7 µM; Activity [3]: Dose-dependent-effect
Fc1ccc2cc[nH]c2c1	–	–	–	Non-toxic	–
Brc1cccc2[nH]ccc12	–	–	–	Non-toxic	–
O=C1Cc2cccc(Cl)c2N1	–	–	–	Non-toxic	–
Clc1cc2c(cc1Cl)Oc1cc(Cl)c(Cl)cc1O2 [2,3,7,8-TETRACHLORODIBENZO-P-DIOXIN]	–	–	–	–	fold change (FC) [8]: ~26; fold change (FC) [9]: ~92
Brc1cccc2cc[nH]c12	–	–	5.5	Non-toxic	inhibition at 50 µM [2]: > 70%
Fc1ccc2[nH]ccc2c1	–	–	–	Non-toxic	–
Clc1cccc2cc[nH]c12	–	–	–	Non-toxic	–
Fc1cccc2cc[nH]c12	–	–	3.8	Non-toxic	inhibition at 50 µM [2]: > 70%; IC50 [3]: 22.1 µM; Ki [3]: 11 µM; Activity [3]: Dose-dependent-effect
Fc1cccc2[nH]ccc12	–	–	5.1	Non-toxic	inhibition at 50 µM [2]: > 70%; IC50 [3]: 18.2 µM; Ki [3]: 9.1 µM; Activity [3]: Dose-dependent-effect
O=C1Cc2cc(F)ccc2N1	–	–	–	Non-toxic	–
O=C1Cc2cc(Br)ccc2N1	–	–	4.7	Non-toxic	inhibition at 50 µM [2]: 20%; IC50 [3]: > 100 µM; Activity [3]: Dose-dependent-effect
O=C1Cc2cc(Cl)ccc2N1	–	–	–	Non-toxic	–
c1ccc2[nH]ccc2c1 [INDOLE]	11.1	94	–	Non-toxic	EC50 [5]: 43.1 µM
Brc1ccc2cc[nH]c2c1	–	–	4.1	Non-toxic	IC50 [3]: 43.4 µM; Ki [3]: 21.7 µM; Activity [3]: Dose-dependent-effect

Now from value to compound, other results behind:

EC50 [6] [µM]	activity at 100 µM [7] [%]	SMILES	EC80 [1] [µM]	Activity [4]	also measured
4.3	92	Clc1ccc2cc[nH]c2c1	–	Non-toxic	EC50 [5]: 80.6 µM
7.9	15	Clc1cccc2[nH]ccc12	–	Non-toxic	Activity [10]: 50%
24.1	30	Clc1ccc2[nH]ccc2c1	–	Non-toxic	EC50 [5]: 77.2 µM; Activity [10]: 50%
2.5	68	O=C1Cc2ccc(Br)cc2N1	33.1	Non-toxic	inhibition at 50 µM [2]: 10%; EC50 [5]: 18.6 µM; Efficacy [11]: 12%; IC50 [3]: > 100 µM; Activity [3]: Dose-dependent-effect
5.2	86	O=C1Cc2ccccc2N1 [OXINDOLE]	–	Non-toxic	EC50 [5]: 80.9 µM
6.7	108	Brc1ccc2[nH]ccc2c1	–	Non-toxic	EC50 [5]: 58.1 µM
